Assay results: patent US9499519B2, “Fused pyrimidine compounds and use thereof” (Medivation Technologies, Inc., priority 2012, dated 2016)
Where two headings read alike, the source gives them in different places.

Key:
[1] = target: T1, IGF-1R (Homo sapiens, UniProt P08069); test: In vitro IGF-1R enzymatic assay (ADP-Glo kinase assay); assay type: biochemical; conditions: activated IGF-1R, 30 nM; for % Inh @ 30 nM (N1) / % Inh @ 30 nM (N2): 0.03 µM
T1 construct: purchased Millipore 14-802
Protocol: (§1) IC50 values of the compounds of the invention against IGF-1R and IR were measured in vitro using an ADP-Glo kinase assay Kit (Promega). […] Kinase reactions in both assays were conducted at 30° C. for 20 min with increasing concentrations of compounds of the invention.
Additional compounds of the invention were screened against activated IGF-1R.

[2] = target: T2, IR (Homo sapiens, UniProt P06213); test: In vitro IR enzymatic assay (ADP-Glo kinase assay); assay type: biochemical; conditions: activated IR, 30 nM; for % Inh @ 30 nM (N1) / % Inh @ 30 nM (N2): 0.03 µM
T2 construct: purchased Millipore 14-803
Protocol: as §1
Additional compounds of the invention were screened against activated IR.

[3] = system: Akt phosphorylation induced by IGF-1R; test: Western blot analysis of Akt phosphorylation induced by IGF-1 in HT-29 cells; assay type: cell-based, Human; conditions: for Levels of phosphorylated AKT in treated cells (pAKT/actin): HT-29 cells, IGF-1; for p-AKT relative to levels with 0.1 nM compound: Table B2 lower part; for Normalized phosphorylated AKT (relative to actin) levels relative to 0.1 nM compound treatment: Table B2 upper part; for pAKT relative to 0.1 nM compound: derivatives of Cpd. No. 8b
Procedure, shortened: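 HT-29 cells grown 24 h in DME/F12 with 10% FBS, serum-starved 24 h, then exposed 2 h to compound at 0.1, 1, 10 or 100; controls received DMSO or 10 ng/mL IGF-1. Lysate soluble fractions quantified by BCA before western blotting for phospho-Akt.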

[4] = N1, read-out: % Inh @ 30 nM (N1)
[5] = N2, read-out: % Inh @ 30 nM (N2)
[6] = average, read-out: % Inh @ 30 nM Avg

T1 sequence (P08069 31-1367): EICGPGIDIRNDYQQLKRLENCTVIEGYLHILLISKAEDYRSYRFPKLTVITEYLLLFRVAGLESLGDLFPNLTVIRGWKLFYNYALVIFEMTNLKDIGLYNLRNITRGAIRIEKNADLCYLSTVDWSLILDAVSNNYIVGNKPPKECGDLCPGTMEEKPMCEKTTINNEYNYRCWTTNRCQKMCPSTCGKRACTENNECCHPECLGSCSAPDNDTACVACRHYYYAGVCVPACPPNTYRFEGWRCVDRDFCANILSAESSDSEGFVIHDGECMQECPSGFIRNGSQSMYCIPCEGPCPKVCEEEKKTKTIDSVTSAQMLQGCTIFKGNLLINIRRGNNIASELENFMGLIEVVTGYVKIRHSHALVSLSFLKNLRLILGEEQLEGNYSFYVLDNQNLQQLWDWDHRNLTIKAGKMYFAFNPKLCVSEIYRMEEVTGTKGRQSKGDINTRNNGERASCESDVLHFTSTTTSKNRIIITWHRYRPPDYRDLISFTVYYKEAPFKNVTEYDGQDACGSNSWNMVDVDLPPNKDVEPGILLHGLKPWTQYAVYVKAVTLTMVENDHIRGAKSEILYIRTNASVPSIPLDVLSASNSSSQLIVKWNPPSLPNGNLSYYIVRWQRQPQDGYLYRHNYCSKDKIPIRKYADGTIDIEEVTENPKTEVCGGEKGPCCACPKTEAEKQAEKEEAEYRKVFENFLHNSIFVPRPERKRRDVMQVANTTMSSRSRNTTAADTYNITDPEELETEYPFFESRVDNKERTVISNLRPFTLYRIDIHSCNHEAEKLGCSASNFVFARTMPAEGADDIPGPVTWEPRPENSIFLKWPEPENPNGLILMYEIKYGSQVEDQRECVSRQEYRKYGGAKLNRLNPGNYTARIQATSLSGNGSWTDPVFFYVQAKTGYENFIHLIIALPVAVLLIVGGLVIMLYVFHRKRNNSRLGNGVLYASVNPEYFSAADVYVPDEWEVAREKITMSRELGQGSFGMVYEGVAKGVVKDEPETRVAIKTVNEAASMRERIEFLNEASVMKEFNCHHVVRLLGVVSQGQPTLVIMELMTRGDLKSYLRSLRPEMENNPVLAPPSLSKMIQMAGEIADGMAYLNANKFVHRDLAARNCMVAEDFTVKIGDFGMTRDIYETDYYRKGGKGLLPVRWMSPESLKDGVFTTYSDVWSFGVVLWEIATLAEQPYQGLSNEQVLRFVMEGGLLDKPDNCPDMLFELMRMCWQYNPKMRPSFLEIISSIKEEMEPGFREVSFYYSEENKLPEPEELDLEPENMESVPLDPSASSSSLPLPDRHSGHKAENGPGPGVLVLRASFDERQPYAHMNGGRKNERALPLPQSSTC
T2 sequence (P06213 28-1382): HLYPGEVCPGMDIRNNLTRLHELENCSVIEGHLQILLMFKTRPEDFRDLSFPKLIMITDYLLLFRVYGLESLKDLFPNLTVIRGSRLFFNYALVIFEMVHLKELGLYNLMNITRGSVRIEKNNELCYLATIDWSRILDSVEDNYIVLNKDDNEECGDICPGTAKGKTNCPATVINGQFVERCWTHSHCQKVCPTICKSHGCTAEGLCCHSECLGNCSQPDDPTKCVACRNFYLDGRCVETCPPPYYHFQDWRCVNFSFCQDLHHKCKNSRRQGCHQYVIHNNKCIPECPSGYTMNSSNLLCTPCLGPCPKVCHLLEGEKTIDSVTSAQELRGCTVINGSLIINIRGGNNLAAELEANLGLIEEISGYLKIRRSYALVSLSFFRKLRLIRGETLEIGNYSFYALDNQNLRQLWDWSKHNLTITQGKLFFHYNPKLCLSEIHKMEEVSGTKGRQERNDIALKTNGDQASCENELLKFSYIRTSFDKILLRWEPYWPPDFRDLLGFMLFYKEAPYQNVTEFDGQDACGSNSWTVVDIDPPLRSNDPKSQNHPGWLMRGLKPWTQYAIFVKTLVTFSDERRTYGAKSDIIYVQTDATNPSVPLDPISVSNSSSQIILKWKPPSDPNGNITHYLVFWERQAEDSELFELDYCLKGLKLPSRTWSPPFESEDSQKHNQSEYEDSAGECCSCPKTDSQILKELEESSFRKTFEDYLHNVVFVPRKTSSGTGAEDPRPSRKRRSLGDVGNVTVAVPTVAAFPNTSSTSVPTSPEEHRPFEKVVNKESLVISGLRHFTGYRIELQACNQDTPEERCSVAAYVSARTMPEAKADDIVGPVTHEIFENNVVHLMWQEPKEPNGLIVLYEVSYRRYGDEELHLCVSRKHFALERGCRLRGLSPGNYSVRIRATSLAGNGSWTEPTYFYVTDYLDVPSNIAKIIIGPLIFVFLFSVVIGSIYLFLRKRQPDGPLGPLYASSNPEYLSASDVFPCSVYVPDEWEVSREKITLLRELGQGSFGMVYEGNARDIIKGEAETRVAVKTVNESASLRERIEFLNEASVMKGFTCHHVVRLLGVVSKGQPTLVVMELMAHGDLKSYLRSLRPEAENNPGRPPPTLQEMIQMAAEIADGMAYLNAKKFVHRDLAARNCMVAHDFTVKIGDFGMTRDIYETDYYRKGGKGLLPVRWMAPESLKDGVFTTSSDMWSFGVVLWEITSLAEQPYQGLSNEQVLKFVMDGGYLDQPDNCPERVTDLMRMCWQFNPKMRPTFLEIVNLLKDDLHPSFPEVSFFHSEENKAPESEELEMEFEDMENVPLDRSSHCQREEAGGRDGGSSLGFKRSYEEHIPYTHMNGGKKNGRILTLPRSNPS

Row | SMILES | Levels of phosphorylated AKT in treated cells (pAKT/actin) ([3]; 0.1 nM compound) | p-AKT relative to levels with 0.1 nM compound ([3]; 0.1 nM) | Normalized phosphorylated AKT (relative to actin) levels relative to 0.1 nM compound treatment ([3]; 0.1 nM) | Levels of phosphorylated AKT in treated cells (pAKT/actin) ([3]; 1 nM compound) | p-AKT relative to levels with 0.1 nM compound ([3]; 1 nM) | Normalized phosphorylated AKT (relative to actin) levels relative to 0.1 nM compound treatment ([3]; 1 nM) | Levels of phosphorylated AKT in treated cells (pAKT/actin) ([3]; 10 nM compound) | p-AKT relative to levels with 0.1 nM compound ([3]; 10 nM) | Normalized phosphorylated AKT (relative to actin) levels relative to 0.1 nM compound treatment ([3]; 10 nM) | Levels of phosphorylated AKT in treated cells (pAKT/actin) ([3]; 100 nM compound) | p-AKT relative to levels with 0.1 nM compound ([3]; 100 nM) | Normalized phosphorylated AKT (relative to actin) levels relative to 0.1 nM compound treatment ([3]; 100 nM) | % Inh @ 30 nM (N1) ([1]; N1) | % Inh @ 30 nM (N2) ([1]; N2) | % Inh @ 30 nM Avg ([1]; average) | % Inh @ 30 nM (N1) ([2]; N1) | % Inh @ 30 nM (N2) ([2]; N2) | % Inh @ 30 nM Avg ([2]; average) | other results
1 | CC(C)c1cc(Nc2nc(N3CCCC3C(=O)Nc3ccc(F)nc3)nc3c2CCCC3)n[nH]1 (single isomer, unassigned) [Compound 13b, N-(6-fluoropyridin-3-yl)-1-(4-(5-isopropyl-1H-pyrazol-3-ylamino)-5,6,7,8-tetrahydroquinazolin-2-yl)pyrrolidine-2-carboxamide] | 0.22 | 1.0 | 1.0 | 0.09 | 0.4 | 0.4 | 0.00 | 0.0 | 0.0 | 0.00 | 0.0 | 0.0 |  |  |  |  |  |  | inhibition at 0.03 µM [1, 4]: 82%; inhibition at 0.03 µM [1, 5]: 80%; inhibition at 0.03 µM [1, 6]: 81%; inhibition at 0.03 µM [2, 4]: 84%; inhibition at 0.03 µM [2, 5]: 80%; inhibition at 0.03 µM [2, 6]: 82%; pAKT relative to 0.1 nM compound ([3]; 0.1 nM): 1.00; pAKT relative to 0.1 nM compound ([3]; 1 nM): 0.49; pAKT relative to 0.1 nM compound ([3]; 10 nM): 0.04; pAKT relative to 0.1 nM compound ([3]; 100 nM): 0.02
2 | O=C(Nc1ccc(F)nc1)C1CCCN1c1nc2c(c(Nc3cc(C4CCCC4)[nH]n3)n1)CCCC2 (single isomer, unassigned) [Compound 15b, 1-(4-(5-cyclopentyl-1H-pyrazol-3-ylamino)-5,6,7,8-tetrahydroquinazolin-2-yl)-N-(6-fluoropyridin-3-yl)pyrrolidine-2-carboxamide] | 0.52 | 1.0 | 1.0 | 0.58 | 1.1 | 1.1 | 0.43 | 0.8 | 0.8 | 0.13 | 0.3 | 0.3 | 32% | 28% | 30% | 28% | 31% | 30% | 
3 | CC(C)c1cc(Nc2nc(N3CCCCC3C(=O)Nc3ccc(F)nc3)nc3c2CCC3)n[nH]1 (single isomer, unassigned) [Compound 16a, N-(6-fluoropyridin-3-yl)-1-(4-(5-isopropyl-1H-pyrazol-3-ylamino)-6,7-dihydro-5H-cyclopenta[d]pyrimidin-2-yl)piperidine-2-carboxamide] | 0.82 | 1.0 | 1.0 | 0.62 | 0.8 | 0.8 | 0.61 | 0.7 | 0.7 | 0.30 | 0.4 | 0.4 |  | 15% |  | 1% | −7% | −3% | 
4 | CC(C)c1cc(Nc2nc(N3CCCCC3C(=O)Nc3ccc(F)nc3)nc3c2CCC3)n[nH]1 (single isomer, unassigned) [Compound 16b, N-(6-fluoropyridin-3-yl)-1-(4-(5-isopropyl-1H-pyrazol-3-ylamino)-6,7-dihydro-5H-cyclopenta[d]pyrimidin-2-yl)piperidine-2-carboxamide] | 0.53 | 1.0 | 1.0 | 0.51 | 1.0 | 1.0 | 0.15 | 0.3 | 0.3 | 0.01 | 0.0 | 0.0 | 40% | 40% | 40% | 26% | 23% | 25% | 
